Tests used:
[1] = In vitro release of triclosan from films; type: physicochemical; details: in vitro testing
S. aureus ATCC 25923 = assay: Zone of inhibition (ZOI) on Mueller Hinton agar; type: cell-based; details: 6 mm punches or filter disk, 36° C., 16-18 hours
Method: (§1) Testing was performed with 4 different species of bacteria. […] S. aureus ATCC 25923; S. epidermidis ATCC 12228; Pseudomonas aeruginosa ATCC 10145; Enterobacter [NT] 29941 Glass culture tubes (VWR #:89001-480); Blank Disks, 6.35 mm diameter (VWR#: 90002-114); 6 mm Disposable Biopsy Punches (VWR#: 21909-144); Mueller Hinton agar dishes (VWR #: 100219-188); 0.5 McFarland turbidity standard (VWR #: 29447-318); dPBS (VWR #: 12001-664); Cotton swabs; Incubator; Thermometer; Bacterial hood […] Swirl the swab in this tube and when removing the swab, press it into the side of the tube above the liquid. • Inoculate Mueller-Hinton agar plates by streaking once down the middle of the plate. […] After streaking the entire plate, streak the swab around the rim of the plate. • Place filter disks/punches onto the dish. • Place in the 36° C. incubator within 15 minutes inoculating dish. • Incubate 16-18 hours. • Measure ZOI in millimeters using slide caliper (ZOI was measured a linear distance measured through the center point of the disk). FIG. 28 illustrates the minimum effective concentration and measured ZOI.

[2] = tested on: S. epidermidis ATCC 12228; assay: Zone of inhibition (ZOI) on Mueller Hinton agar; type: cell-based; details: 6 mm punches or filter disk, 36° C., 16-18 hours
Method: as §1

[3] = tested on: Pseudomonas aeruginosa ATCC 10145; assay: Zone of inhibition (ZOI) on Mueller Hinton agar; type: cell-based; details: 6 mm punches or filter disk, 36° C., 16-18 hours
Method: as §1

[4] = tested on: Enterobacter cloacae ATCC 29941; assay: Zone of inhibition (ZOI) on Mueller Hinton agar; type: cell-based; details: 6 mm punches or filter disk, 36° C., 16-18 hours
Method: as §1

[5] = Implantation of sleeve-covered metal plates in sheep; details: within 24 hours after insertion, sleeves
Method: In one exemplary embodiment, implants were tested by implantation in sheep. The implants were metal plates with tubular, thin (0.05-0.08 mm), transparent polymer sleeves carefully slipped over the metal plates just before they were surgically inserted and attached to the bone. […] The sleeves were comprised of a synthetic copolyester (glycolide, caprolactone, trimethylenecarbonate, lactide) with aperture holes of 1.5 mm diameter equally spaced throughout.

Q: For Oc1cc(Cl)ccc1Oc1ccc(Cl)cc1Cl [triclosan, 2,4,4′-trichloro-2′-hydroxydiphenyl ether], which initial burst release [1] is on record?
A: minimal

Q: What about the “period of release from films” value [1] of the same compound?
A: slowly over a to 3 weeks period

Q: Which results are given for Gentamicin [120 ug gentamicin]?
A: Avg. ZOI (mm) S. aureus (S. aureus ATCC 25923; 0.1-5% films data set): 30.5 mm; Avg. ZOI (mm) S. aureus (S. aureus ATCC 25923; 13% film tested separately): 28.73 mm; Avg. ZOI (mm) S. epidermidis ([2]; 0.1-5% films data set): 34.9 mm; Avg. ZOI (mm) S. epidermidis ([2]; 13% film tested separately): 31.37 mm; Avg. ZOI (mm) P. aeruginosa ([3]; 0.1-5% films data set): 26.7 mm; Avg. ZOI (mm) P. aeruginosa ([3]; 13% film tested separately): 24.90 mm; Avg. ZOI (mm) E. cloacae ([4]; 0.1-5% films data set): 22.4 mm; Avg. ZOI (mm) E. cloacae ([4]; 13% film tested separately): 25.27 mm

Q: With gentamicin as the compound, how does the “gentamicin released into the adjacent tissue” value [5] read?
A: Approximately 50%

From patent US10500304B2, “Films and methods of manufacture” (priority 2013, dated 2019)
